Experimental data published in patent publication US12263156B2, “Use of small molecule inhibitors of the BfrB:Bfd interaction in biofilms” (priority 2020, dated 2025).

Tests used:
Format in all cases: cell-based, Pseudomonas aeruginosa
[1] = tested on: P. aeruginosa clinical isolate PA_1081725; settings: 2-day old pellicles, 24 h, 1.2× the IC50 (KM-5-25 80 μM; KM-5-66 50 μM)
Protocol: (§1) Pellicle biofilms were grown as described above.
(§2) To investigate whether the compounds are also active against other strains of P. aeruginosa, pellicles of several clinical isolates from JMI Laboratories were cultured. […] To gain a broader understanding of the potential activity spectrum of the BfrB-Bfd inhibitors against P. aeruginosa strains, BLASTp^62 was used to find homologs of BfrB and Bfd sequences in the >4,400 P. aeruginosa genomes in the Pseudomonas Genome Database.^63 The results reveal two important facts: (i) The bfrB and bfd genes are adjacent to one another in all the P. aeruginosa strains, (ii) There is an extremely high level of conservation among the bfd and bfrB sequences. These findings evidence that the compounds of the present technology are broadly active against P. aeruginosa.

[2] = tested on: P. aeruginosa clinical isolate PA_1076058; settings: 2-day old pellicles, 24 h, 1.2× the IC50 (KM-5-25 80 μM; KM-5-66 50 μM)
Protocol: as §1, §2

[3] = tested on: EYFP-expressing P. aeruginosa PAO1 biofilms; experiment: Flow cell biofilm assay (CLSM imaging, COMSTAT biomass); settings: 3-day old biofilms, 24 h; KM-5-25 40 and 80 μM, KM-5-66 15, 30 and 50 μM
Protocol: ACS Infect. Dis. […] The experimental shear stress was 0.14-dyn/cm^2 (shear rate=14 s^−1, pressure=7.1 mbar, flow rate=0.4 mL/min) and the switch time was set to 540 s. […] During biofilm growth and challenge with antibacterial, the culture medium in the reservoirs was removed every 12 hours and replaced with fresh pre-warmed medium. […] The biofilms were imaged with the aid of a Leica TCS SP8 confocal microscope (Leica Microsystems, Germany) using a HC PL apo CS2 63×/1.4 oil objective. […] Image stacks were acquired with a z-step size of 0.3 μm at randomly chosen positions. The Leica Application Suite X (LAS-X) software was used for image stack processing.^54 Quantitative analysis of biofilm biomass was performed using the COMSTAT computer program^54 and the Otsu method of automatic thresholding.^85
The treated biofilms were counterstained with the cell impermeable fluorescent nucleic acid dye Sytox Red and then imaged with the aid of confocal laser scanning microscopy (CLSM).

[4] = tested on: EYFP-expressing P. aeruginosa PAO1 pellicle biofilms; experiment: Pellicle biofilm assay (CLSM imaging, COMSTAT biomass); settings: 2-day old pellicles, 24 h; KM-5-25 80 μM, KM-5-66 50 μM (about 1.2× the IC50)
Protocol: Pellicle biofilms of EYFP-expressing P. aeruginosa PAO1 or clinical isolates were grown in PI media supplemented with 20 μM Fe. Starter cultures were diluted to OD600=0.001 in 4 mL media, placed in 35×10 mm petri dishes and incubated statically at 30° C. for 48 hours. The pellicles were transferred onto circular (1.5 cm diameter) glass coverslips by gently allowing the surface of a coverslip to contact a pellicle. The pellicle-adhered coverslip was washed in PBS and then deposited on top of 1.5 mL of AB challenge media contained in a well of a 12-well microplate, with the pellicle exposed to the media. […] The coverslip-adhered pellicles were exposed to challenge media at 30° C. for 24 hours, changing the challenge media every 12 hours by transferring the pellicle-adhered coverslip to a new plate containing pre-warmed challenge media.
Excess fluorescent dye was washed with PBS, the coverslip was mounted on a glass slide using 5 μL of SlowFade (Invitrogen, Carlsbad, CA) and the edges sealed with fingernail polish. CLSM image stacks (z-step size of 0.3 μm) were acquired with the aid of a Leica TCS SP8 microscope, as described above. Quantitative analysis was performed by determination of pellicle biomass using COMSTAT^54 and the Otsu method of automatic thresholding.^85
To expand the observations made with flow cell biofilms into a second biofilm model, the susceptibility of biofilms grown at the air-liquid interface (pellicles) was also studied.^56-57 Pellicle biofilms (henceforth pellicles) are an attractive alternative platform to study biofilms because pellicles are amenable to imaging by CLSM and to harvesting, which can be desirable for additional biofilm analysis.^26 To determine the susceptibility of pellicles to antibiotics or inhibitors of the BfrB-Bfd complex, 2-day old pellicles of EYFP-expressing P. aeruginosa cells were cultured in PI media supplemented with 20 μM Fe. The pellicles were transferred onto glass coverslips by allowing the surface of the coverslip to contact a pellicle.

**Q.** Which results are given for `O=C1NC(=O)c2c(NCc3cc(Cl)ccc3O)cccc21` [KM-5-25]?
**A.** reduction of viable cells [1]: approximately 80%; reduction of viable cells [2]: approximately 80%; killing of flow cell biofilm cells (CLSM images) [3]: concentration dependent manner; cells in the pellicle treated (killed), COMSTAT [4]: ~85%

**Q.** `O=C1NC(=O)c2c(NCCCc3cc(O)cc(Cl)c3)cccc21` [KM-5-66] was tested. Which “reduction of viable cells” value [1] did it give?
**A.** approximately 80%

**Q.** What about the “reduction of viable cells” value [2] of the same molecule?
**A.** approximately 80%

**Q.** And the “killing of flow cell biofilm cells (CLSM images)” value [3]?
**A.** concentration dependent manner

**Q.** What about the “cells in the pellicle treated (killed), COMSTAT” value [4] of the same molecule?
**A.** ~85%
